This note sets out measurements from US10082510B2, “SRC-2 use as metabolic biomarker for diagnosis and treatment of metastatic prostate cancer” (Baylor College of Medicine, priority 2014, dated 2018).

What all share (format): cell-based, human
Experiment [1] relates to SRC-2 protein in C4-2 cells. Put plainly: Western blot of SRC-2 protein level after kinase inhibitor treatment. The note with it: for SRC-2 protein level compared to DMSO-treated cells: Torin 250 nM, 12 hours. How it is done:
FIG. 4—Glutamine stimulation induces mTORC1-dependent SRC-2 transcriptional activity. (A) Western blot analysis of FASN, SCD, SRC-2 and actin in C4-2 stable cells—shNT, sh18 and sh19 grown in high glucose (11 mM)/low glutamine (0.2 mM) or low glucose (5 mM)/high glutamine (2 mM). Actin was used as a control to normalize the protein loading. Semiquantitative levels of each band were analyzed by densitometry using UVP Vision Works LS software and relative values (compared to shNT) normalized to actin are indicated numerically under each lane. (B) C4-2 cells were cultured in presence of high glucose (11 mM)/low glutamine (0.2 mM) or low glucose (5 mM)/high glutamine (2 mM) and then treated with kinase inhibitors: BEZ-235 (1 uM); Rapamycin (100 nM); Torin (250 nM); and Wortmannin (250 nM). Western blot analyses were performed to measure the stability of SRC-2 protein. Semi-quantitative levels of each band were analyzed by densitometry using UVP Vision Works LS software and relative values (compared to DMSO) normalized to actin are indicated numerically under each lane. (C) Immunoprecipitation of HA-SRC-2 followed by Western immunoblot to detect the phosphorylation status of SRC-2 using phospho-serine/threonine antibody. Input lysates were obtained from C4-2 cells expressing Adv.GFP or Adv. SRC-2, and subsequently stimulated with increasing concentration of glutamine—[…] followed by treatment with DMSO or mTORC1 inhibitor-Torin (250 nM). Actin was used to normalize the input loading. Semiquantitative levels of phospho-SRC-2 were analyzed by densitometry using UVP Vision Works LS software and relative values (compared to lane 2) normalized to actin are indicated numerically under each lane. (D) PC-3 cells expressing either Adv.GFP or Adv. SRC-2 were transfected with FASN-luc construct and stimulated with high glucose (11 mM)/low glutamine (0.2 mM) or high glutamine (2 mM)/low glucose (5 mM) followed by treatment with DMSO or Torin (250 nM). Lucifrease assay was then performed to measure the FASN promoter activity and data were normalized to total protein. […]

The subject of experiment [2] is C4-2 and PC-3 cells. The experiment in a line: Cell growth assay (Cellglo). Conditions: C4-2 and PC-3 shNT cells; BPTES 1 μM, 4 days. How it is done: FIG. 6—SRC-2 is essential for prostate cancer cell survival. (A) Representative images depicting the growth of C4-2 stable cells—shNT, sh18 and sh19 in soft agar assay two weeks after plating. (B) Quantification of the total number of C4-2 stable cell colonies that survived after two weeks. (C) H&E stained sections of mouse lungs from experimental lung metastasis assay. Nude mice were injected with PC-3 cells stably expressing shNT, sh18 and sh19 via tail vein (n=7), and growth and survival of the cells in mouse lungs were analyzed after 5 weeks. (D) Quantification of Ki67 (antibody epitope reacts with human Ki67 protein) stained cells in the mouse lung sections from shNT, sh18 and sh19-injected animals. Refer Supplementary FIG. 14C. (E) Western blot analysis showing the expression levels of SRC-2, FASN, SCD and actin in C4-2 stable cells—shNT and sh19, and re-expression of SRC-2 in sh19 cells infected with Adv. SRC-2. Actin was used to normalize the protein loading. […]
Cells were seeded in 96-well plates in complete medium, and after the cells attached to the bottom surface they were incubated in nutrient-stressed medium. The cell growth was measured using Cellglo kit (Promega) according to manufacturer's instructions. […]

In a further experiment the test system is SRC-2 mRNA in C4-2 cells. Put plainly: Quantitative real time PCR of SRC-2 messenger after kinase inhibitor treatment. The note with it: Torin 250 nM. How it is done: FIG. 13—Glutamine stimulation activates SRC-2 transcriptional functions in an mTORC1 dependent manner. (A) Quantitative real time PCR analysis of FASN, SCD and SRC-2 in C4-2 cells were treated with siGFP (control) or siSRC-2 and cultured in nutrient stressed conditions—high glucose (11 mM)/low glutamine (0.2 mM) or low glucose (5 mM)/high glutamine (2 mM). (B) Quantitative real time PCR analysis of SRC-2 in C4-2 cells expressing siGFP (control) or siSRC-2 and then treated with BEZ-235 (1 uM); Rapamycin (100 nM); Torin (250 nM); and Wortmannin (250 nM). (C) Western blot analysis showing the expression of phospho-S6K (p-S6K), phospho-4EBP1 (p-4EBP1) and actin in C4-2 cells stimulated with increasing concentration of glutamine followed by treatment with DMSO or mTORC1 inhibitor-Torin. Actin was used to normalize the protein loading.
Total mRNA was isolated from prostate cancer cells, tissues and tumors using the RNeasy Kit (QIAGEN). Reverse transcription was carried out using Superscript VILO cDNA synthesis kit (Invitrogen, CA) according to the manufacturer's instructions. For gene expression analysis, qPCR was performed using the Taqman system (Roche) with sequence-specific primers and the Universal Probe Library (Roche). […] Data was analyzed using the comparative Ct method (ΔΔCt). […] Data obtained was analyzed using RT^2 Profiler™ PCR Array Data Analysis software (SA Bioscineces, CA). […]
A general note: In qPCR the cycle at which signal appears reflects the starting amount.

For experiment [3], the system named is SRC-2 serine/threonine phosphorylation in C4-2 cells. Put plainly: Immunoprecipitation of HA-SRC-2 and phospho-serine/threonine immunoblot. Conditions: C4-2 cells expressing Adv. SRC-2 (HA-SRC-2), glutamine stimulated; Torin 250 nM, 4 hours pre-treatment. How it is done: (§1) FIG. 4—Glutamine stimulation induces mTORC1-dependent SRC-2 transcriptional activity. (A) Western blot analysis of FASN, SCD, SRC-2 and actin in C4-2 stable cells—shNT, sh18 and sh19 grown in high glucose (11 mM)/low glutamine (0.2 mM) or low glucose (5 mM)/high glutamine (2 mM). Actin was used as a control to normalize the protein loading. Semiquantitative levels of each band were analyzed by densitometry using UVP Vision Works LS software and relative values (compared to shNT) normalized to actin are indicated numerically under each lane. (B) C4-2 cells were cultured in presence of high glucose (11 mM)/low glutamine (0.2 mM) or low glucose (5 mM)/high glutamine (2 mM) and then treated with kinase inhibitors: BEZ-235 (1 uM); Rapamycin (100 nM); Torin (250 nM); and Wortmannin (250 nM). Western blot analyses were performed to measure the stability of SRC-2 protein. Semi-quantitative levels of each band were analyzed by densitometry using UVP Vision Works LS software and relative values (compared to DMSO) normalized to actin are indicated numerically under each lane. […] Semiquantitative levels of phospho-SRC-2 were analyzed by densitometry using UVP Vision Works LS software and relative values (compared to lane 2) normalized to actin are indicated numerically under each lane. […]
(In general: In western blotting, separated proteins are transferred to a membrane and probed.)

Experiment [4] deals with SRC-2 protein stability in C4-2 cells. The experiment in a line: Cycloheximide protein stability assay. Conditions: high glutamine (2.0 mM), cycloheximide 0.5 mM, Torin 250 nM. On the procedure: FIG. 14—Glutamine-dependent mTORC1 phosphorylation controls SRC-2 protein stability. (A) C4-2 cells were cultured in presence of low glutamine (0.2 mM) and high glutamine (2.0 mM) followed by treatment with cycloheximide (0.5 mM) for indicated time points. Western blot showing the total-level of SRC-2 and actin was used as a loading control. (B) C4-2 cells were cultured in presence of high glutamine (2.0 mM) followed by either treatment with DMSO and Torin. Cycloheximide (0.5 mM) was then added to the cells for indicated time points. Western blot showing the total-level of SRC-2 and actin was used as a loading control.
SRC-2 protein stability was studied by cycloheximide treatment experiments in C4-2 cells for different time points as described previously (Li C, Jo A, et al, 2011). C4-2 cells were cultured in low glutamine (0.2 mM) or high glutamine (2.0 mM) followed by treatment with cycloheximide (0.5 mM). For Torin treatment, C4-2 cells cultured in high glutamine were either treated with DMSO (vehicle-control) or Torin (250 nM) prior to cyclohexamide treatments. Cells were lysed followed by Western immunoblotting.

The subject of experiment [5] is SRC-2 driven FASN-promoter activity in PC-3 cells. The experiment in a line: FASN-luc luciferase reporter assay. Conditions: PC-3 cells expressing Adv. SRC-2, high glutamine (2 mM)/low glucose (5 mM); Torin 250 nM. How it is done: as §1, with “(B) C4-2 cells were cultured in presence of high glucose (11 mM)/low glutamine (0.2 mM) or low glucose (5 mM)/high glutamine (2 mM) and then treated with kinase inhibitors: BEZ-235 (1 uM); Rapamycin (100 nM); Torin (250 nM); and Wortmannin (250 nM). Western blot analyses were performed to measure the stability of SRC-2 protein.” left out
Luciferase assays were performed using Luciferase Reporter Assay (Promega) and a Berthold 96 well plate reader. […]
Luciferase promoter constructs were obtained from following sources: FASN-Addgene, SCD-Switchgear genomics and ZIP1—Peter Makhov (Fox Chase Cancer Center). […] Cells were harvested two days after transfection and luciferase assay performed using a Luciferase Reporter Assay (Promega) and a Berthold 96 well plate reader. […]
(In general: A reporter such as luciferase makes a cellular process visible.)

For experiment [6], the system named is recruitment of SRC-2 to the FASN and SCD promoters in C4-2 cells. Put plainly: ChIP of SRC-2 on FASN and SCD promoters. The note with it: glutamine stimulation (2 mM), Torin 250 nM.
Experiment [7] concerns C4-2 and PC-3 cells. Put plainly: Oxygen consumption rate (Seahorse XF24). Conditions: C4-2 and PC-3 stable cells; oligomycin 25-40 min time frame, FCCP 45-65 min time frame.
Description: (A) Real-time measurement of basal and maximal oxygen consumption rate (OCR) in C4-2 stable cells—shNT, sh18 and sh19. (B, C) Basal and maximal OCR in C4-2 stable cells—shNT, sh18 and sh19 were measured in DMSO control (B) or FCCP-treated (C) cells cultured in presence of high glucose (11 mM)/low glutamine (0.2 mM) or low glucose (5 mM)/high glutamine (2 mM). […] Data are graphed as the mean±s.e.m. *P<0.05, **P<0.001 by Student's t test.
(A) Real-time measurement of basal and maximal oxygen consumption rate (OCR) in PC-3 stable cells—shNT, sh18, and sh19. (B, C) Basal and maximal OCR in PC-3 stable cells—shNT, sh18, and sh19 were measured in DMSO control or FCCP-treated cells cultured in presence of high glucose (11 mM)/low glutamine (0.2 mM) or low glucose (5 mM)/high glutamine (2 mM). […] Data are graphed as the mean±s.e.m. *P<0.05, **P<0.001 by Student's t test.
The oxygen consumption rate (OCR) was measured using a Seahorse Bioscience XF24 Extracellular Flux Analyzer according to manufacturer's protocol. Briefly, cells were seeded in triplicates at equal densities (25,000 cells per well) into XF24 tissue culture plates. […] Oxygen consumption was measured under basal conditions (DMSO), oligomycin and mitochondrial uncoupler trifluoromethoxy carbonyl cyanide phenyl 59ydrazine (FCCP) (2 mM) using the mito-stress kit (Seahorse Bioscience). […]

In the case of `Cn1c(=O)n(-c2ccc(C(C)(C)C#N)cc2)c2c3cc(-c4cnc5ccccc5c4)ccc3ncc21` [BEZ-235], in experiment [1] (either culture condition (high glucose/low glutamine or low glucose/high glutamine), BEZ-235 1 uM), the SRC-2 protein stability entry was “failed to show any effect”.

Take `O=C(Cc1ccccc1)Nc1nnc(CCSCCc2nnc(NC(=O)Cc3ccccc3)s2)s1` [BPTES]: the “Prostate cancer cell growth compared to DMSO” value in the experiment with C4-2 and PC-3 cells [2] is recorded as “robust decrease”.

In the case of `CCC(=O)N1CCN(c2ccc(-n3c(=O)ccc4cnc5ccc(-c6cnc7ccccc7c6)cc5c43)cc2C(F)(F)F)CC1` [Torin], the “SRC-2 protein level compared to DMSO-treated cells” value in experiment [1] (glutamine-stimulated (low glucose 5 mM/high glutamine 2 mM), Rapamycin 100 nM) is reported as “down-regulated”; in experiment [1] (high glucose (11 mM)/low glutamine (0.2 mM), Wortmannin 250 nM), “not observed”. Moreover, the SRC-2 messenger expression result with SRC-2 mRNA in C4-2 cells was “without any appreciable change”. For the same molecule, the “Glutamine-induced SRC-2-serine/threonine phosphorylation” value in experiment [3] is reported as “reversed”. In experiment [4], the “Glutamine-increased SRC-2 protein stability (cycloheximide time course)” value is on record as “completely suppressed”. Moreover, the “Glutamine dependent SRC-2 driven FASN-promoter activity” value in experiment [5] was “significantly blocked”. Moreover, the “Glutamine dependent recruitment of SRC-2 to the FASN and SCD promoters” value in experiment [6] is “significantly blocked”.

On to `N#CC(C#N)=NNc1ccc(OC(F)(F)F)cc1` [FCCP, Carbonyl cyanide 4-(trifluoromethoxy)phenylhydrazone], for which the “Oxygen consumption rate (OCR)” value in the experiment on C4-2 and PC-3 cells [7] is on record as “dramatically enhanced”.

Turning to `CC[C@H]1/C=C/C=C/C[C@@H](C)[C@H](O)[C@@](C)(O)C(=O)[C@@H](C)[C@H](O)[C@@H](C)C(=O)[C@@H](C)[C@H](O)[C@@H](C)/C=C/C(=O)O[C@@H]2[C@H](C)[C@H](CC1)O[C@]1(CC[C@H](C)[C@H](C[C@@H](C)O)O1)[C@H]2C` [oligomycin], the “Oxygen consumption rate (OCR)” value in the experiment with C4-2 and PC-3 cells [7] is “decreased the oxygen consumption”.
